# In BindingDB's records for doi:10.1021/acs.jmedchem.9b00186 (Bristol-Myers Squibb Research & Development, 2019):
# Legend:
# [1] = Antagonist activity at PAR4 in human platelet rich plasma assessed as inhibition of gamma-thrombin-induced platelet aggregation preincubated for 5 mins followed by gamma-thrombin addition and measured in presence of recombinant hirudin
# [2] = Antagonist activity at PAR4 in human washed platelets assessed as inhibition of gamma-thrombin-induced platelet aggregation preincubated for 5 mins followed by gamma-thrombin addition and measured every 50 secs for up to 15 mins starting from 10 secs post gamma-thrombin addition in presence of recombinant hirudin
SMILES,IC50 [1] [µM],IC50 [2] [µM]
COc1nn2cc(-c3cc4ccccc4o3)nc2s1,15,0.24
COc1cc(OCc2ccccc2OCc2ccccc2)c2cc(-c3cn4nc(OC)sc4n3)oc2c1,2.5,
COc1cc(OCCOCc2ccccc2)c2cc(-c3cn4nc(OC)sc4n3)oc2c1,0.5,
CC(C)Oc1nn2cc(-c3cc4ccccc4o3)nc2s1,,> 30
CS(=O)(=O)c1nn2cc(-c3cc4ccccc4o3)nc2s1,,> 30
COc1cc(OCc2ccc(OCc3ccccc3)cc2)c2cc(-c3cn4nc(OC)sc4n3)oc2c1,0.55,
COc1cc(OCc2ccc(C(F)(F)F)cc2)c2cc(-c3cn4nc(OC)sc4n3)oc2c1,1.8,
COc1cc(OCc2cccc(CCc3ccccc3)c2)c2cc(-c3cn4nc(OC)sc4n3)oc2c1,1.2,
COc1cc(OCCOc2ccccc2)c2cc(-c3cn4nc(OC)sc4n3)oc2c1,0.48,
COc1cc(OCc2cccc(Sc3ccccc3)c2)c2cc(-c3cn4nc(OC)sc4n3)oc2c1,0.41,
CCOc1nn2cc(-c3cc4ccccc4o3)nc2s1,,2.1
COc1cc(OCc2ccccc2C(F)(F)F)c2cc(-c3cn4nc(OC)sc4n3)oc2c1,> 1,
"CSc1nn2cc(-c3cc4ccccc4o3)nc2s1 [US9862730, Example 1]",,0.27
"COc1nn2cc(-c3cc4cccc(OC)c4o3)nc2s1 [US9862730, Example 9]",3.5,0.24
"COc1nn2cc(-c3cc4ccc(OC)c(OC)c4o3)nc2s1 [US9862730, Example 10]",> 30,> 30
"COc1nn2cc(-c3cc4c(OC)cccc4o3)nc2s1 [US9862730, Example 11]",1.3,0.35
"Cc1nn2cc(-c3cc4ccccc4o3)nc2s1 [US9862730, Example 41]",,> 30
"CCc1nn2cc(-c3cc4ccccc4o3)nc2s1 [US9862730, Example 47]",,2.4
"c1ccc2oc(-c3cn4nc(C5CC5)sc4n3)cc2c1 [US9862730, Example 63]",,> 30
"CNc1nn2cc(-c3cc4ccccc4o3)nc2s1 [US9862730, Example 69]",,> 30
"COc1ccc2cc(-c3cn4nc(OC)sc4n3)oc2c1 [US9862730, Example 71]",0.48,0.12
"COc1cc(OC)c2cc(-c3cn4nc(OC)sc4n3)oc2c1 [US9862730, Example 73]",0.53,0.074
"COc1ccc2oc(-c3cn4nc(OC)sc4n3)cc2c1 [US9862730, Example 93]",> 30,> 30
"COc1nn2cc(-c3cc4c(OC)ccc(OC)c4o3)nc2s1 [US9862730, Example 103]",10,2.1
"COc1nn2cc(-c3cc4ccc(OCc5ccccc5)cc4o3)nc2s1 [US9862730, Example 104]",> 30,1.8
"COc1nn2cc(-c3cc4c(OCc5ccccc5)cccc4o3)nc2s1 [US9862730, Example 210]",4.1,3.1

# Continued, values first:
IC50 [1] [µM],IC50 [2] [µM],SMILES
2.7,,COc1cc(OCc2cccc(O)c2)c2cc(-c3cn4nc(OC)sc4n3)oc2c1
0.82,,COc1cc(OCc2cccc(C#N)c2)c2cc(-c3cn4nc(OC)sc4n3)oc2c1
> 1,,COc1cc(OCc2ccc(Cl)cc2)c2cc(-c3cn4nc(OC)sc4n3)oc2c1
0.68,,COc1cc(OCc2cccc(Cl)c2)c2cc(-c3cn4nc(OC)sc4n3)oc2c1
0.78,,COc1cc(OCCc2ccccc2)c2cc(-c3cn4nc(OC)sc4n3)oc2c1
3.6,,COc1cc(OCc2ccccc2C)c2cc(-c3cn4nc(OC)sc4n3)oc2c1
> 3,,COc1cc(OCc2ccccc2Cl)c2cc(-c3cn4nc(OC)sc4n3)oc2c1
0.44,,COc1cc(OCc2cccc(C(F)(F)F)c2)c2cc(-c3cn4nc(OC)sc4n3)oc2c1
> 3,,COc1ccc(COc2cc(OC)cc3oc(-c4cn5nc(OC)sc5n4)cc23)cc1
0.39,,COc1cc(OCc2cccc(Oc3ccccc3)c2)c2cc(-c3cn4nc(OC)sc4n3)oc2c1
0.6,,COc1cc(OCc2cccc(COc3ccccc3)c2)c2cc(-c3cn4nc(OC)sc4n3)oc2c1
> 1,,COc1cc(OCc2cccc(CO)c2)c2cc(-c3cn4nc(OC)sc4n3)oc2c1
> 1,,COc1cccc(COc2cc(OC)cc3oc(-c4cn5nc(OC)sc5n4)cc23)c1
> 1,,COc1cc(OCc2ccccc2OC)c2cc(-c3cn4nc(OC)sc4n3)oc2c1
